Broadly, the IC50 is the concentration that inhibits the measured activity by half.

Structures are written as SMILES.

Our source for the IC50 values is PMC8961587, “Synthesis and Structure–Activity Relationships of Novel Non-Steroidal CYP17A1 Inhibitors as Potential Prostate Cancer Agents” (Biomolecules, 2022).

This assay addresses T1, CYP17A1 (Homo sapiens, UniProt P05093).
T1 sequence (P05093 1-508): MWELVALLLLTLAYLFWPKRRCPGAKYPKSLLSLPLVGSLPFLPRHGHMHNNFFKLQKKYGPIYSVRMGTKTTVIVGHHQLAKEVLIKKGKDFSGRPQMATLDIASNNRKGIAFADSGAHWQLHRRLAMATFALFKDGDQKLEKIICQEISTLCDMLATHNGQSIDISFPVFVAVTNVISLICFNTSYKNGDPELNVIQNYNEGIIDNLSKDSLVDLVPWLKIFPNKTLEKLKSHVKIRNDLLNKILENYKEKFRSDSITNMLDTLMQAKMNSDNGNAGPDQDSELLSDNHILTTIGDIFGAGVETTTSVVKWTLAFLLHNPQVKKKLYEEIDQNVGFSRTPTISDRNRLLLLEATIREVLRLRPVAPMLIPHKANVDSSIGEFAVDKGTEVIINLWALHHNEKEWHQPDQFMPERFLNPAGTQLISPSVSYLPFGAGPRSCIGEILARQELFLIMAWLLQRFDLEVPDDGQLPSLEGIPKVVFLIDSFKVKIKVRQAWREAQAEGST
As to the kind of experiment: […]α-hydroxylase activity, conversion of […]-progesterone to […]OH-progesterone, TLC; enzyme source not given. The format is cell-based.

`Cc1cc(Nc2cccnc2)ccc1-n1ccc2ccccc21` [compound 20] gave an IC50 of 2600 nM. In turn, `c1ccc2c(c1)ncn2-c1ccc(NC2CCCCC2)cc1` [compound 2] had an IC50 of 1200 nM. Against the preceding molecule, the IC50 is about 2.2-fold lower.
